One series deals with T1, thrombin (IIa) (Homo sapiens, UniProt P00734).
T1 construct: 0.5 nM human thrombin (IIa)
Nature of the series: Fluorogenic enzyme assay (Example 5). The format is biochemical. Further details: key to Hydrolysis kinetic constants, IIa (symbol b): Slow substrate hydrolysis, no kinetic constants calculated. The following applies: for Hydrolysis kinetic constants, IIa (symbol b) / Km / kcat /Km, IIa / kcat, IIa: Table 7; for Time (min) for 10% hydrolysis, IIa: enzyme 100 nM, substrate 1 μM. As to the method: (§1) Enzyme assays (except factor VIIa assays, see below) were conducted in 20 mM Tris, 150 mM NaCl, pH 7.4 (TBS) at room temperature (22° C.). The final volume for all reaction mixtures was 2.0 ml. Fluorogenic substrates were dissolved in DMSO to a stock concentration of 10 mM. The 10 mM stock solution was diluted in TBS to the final working concentration prior to all assays. Enzyme was added to mixtures containing buffer components and substrate and the initial rate of substrate hydrolysis was measured as the change in fluorescent intensity over time, corresponding to the generation of the particular 6-amino-1-naphthalenesulfonamide fluorophore from the provided substrate. Quantitation of substrate hydrolysis was accomplished by establishing a standard curve from the appropriate fluorescent moiety. Fluorescence was monitored (continuously or discontinuously) using a Perkin Elmer fluorescence spectrophotometer, model MPF-44A, equipped with a standard chart recorder. The fluorophore was detected using monochrometers set at an excitation wavelength of 352 nm and an emission wavelength of 470 nm. Light scattering artifacts were minimized using a 399 nm cut off filter in the emission light beam.
(§2) The kinetic constants of substrate hydrolysis were determined using the non-linear least squares regression analysis program ENZFITTER (Cambridge, UK). This program was used to iteratively fit initial rates of substrate hydrolysis to the Michaelis-Menten equation and the kinetic constants of substrate hydrolysis (Km) and (kcat) were calculated.

The target of another series is factor Xa (Homo sapiens, UniProt P00742). The experiment in a line: Fluorogenic enzyme assay (Example 5). The following applies: for Km / kcat /Km, Xa / kcat, Xa: Table 7; for Time (min) for 10% hydrolysis, Xa: enzyme 100 nM, substrate 1 μM. The format is biochemical. The method, then: as §1, §2
Sequence of factor Xa (P00742 235-488 limits assumed): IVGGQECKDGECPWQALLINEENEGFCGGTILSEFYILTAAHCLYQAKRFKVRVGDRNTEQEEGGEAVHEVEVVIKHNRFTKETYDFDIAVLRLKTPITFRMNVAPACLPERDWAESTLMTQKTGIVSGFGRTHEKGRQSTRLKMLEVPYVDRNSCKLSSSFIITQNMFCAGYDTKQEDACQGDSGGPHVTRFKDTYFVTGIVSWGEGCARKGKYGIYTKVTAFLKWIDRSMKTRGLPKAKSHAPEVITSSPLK
Sequence of factor Xa (P00742 41-179 limits assumed): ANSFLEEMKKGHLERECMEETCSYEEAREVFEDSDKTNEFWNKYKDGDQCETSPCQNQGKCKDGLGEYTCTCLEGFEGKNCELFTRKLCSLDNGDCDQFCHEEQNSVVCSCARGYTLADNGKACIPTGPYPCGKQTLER
For series [1], the target named is activated protein C (APC) (Homo sapiens, UniProt P04070). The experiment in a line: Fluorogenic enzyme assay (Example 5). The format is biochemical. Also noted: key to Hydrolysis kinetic constants, APC (symbol b): Slow substrate hydrolysis, no kinetic constants calculated. The settings on record: for Hydrolysis kinetic constants, APC (symbol b) / Km / kcat /Km, APC / kcat, APC: Table 7; for Time (min) for 10% hydrolysis, APC: enzyme 100 nM, substrate 1 μM. As to the method: as §1, §2
Sequence of activated protein C (APC) (P04070 212-461 limits assumed): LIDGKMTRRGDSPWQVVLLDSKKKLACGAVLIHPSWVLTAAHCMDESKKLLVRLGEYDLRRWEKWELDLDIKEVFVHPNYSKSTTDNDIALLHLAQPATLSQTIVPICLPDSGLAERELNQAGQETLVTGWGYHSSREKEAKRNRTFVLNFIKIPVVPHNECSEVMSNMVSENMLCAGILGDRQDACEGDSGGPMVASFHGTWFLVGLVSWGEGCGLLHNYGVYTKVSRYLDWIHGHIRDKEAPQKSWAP
Sequence of activated protein C (APC) (P04070 43-197 limits assumed): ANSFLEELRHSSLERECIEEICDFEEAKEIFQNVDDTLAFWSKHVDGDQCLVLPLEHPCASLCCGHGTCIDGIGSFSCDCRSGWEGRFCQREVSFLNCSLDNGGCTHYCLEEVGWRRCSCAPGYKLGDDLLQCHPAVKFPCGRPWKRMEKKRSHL

Another series has as its target plasmin (Plm) (Homo sapiens, UniProt P00747). Nature of the series: Fluorogenic enzyme assay (Example 5). The format is biochemical. The following applies: enzyme 100 nM, substrate 1 μM; for Time (min) for 5% hydrolysis, Plm: footnote b. The method, then:
as §1, §2

Series [2] deals with tissue plasminogen activator (t-PA) (Homo sapiens, UniProt P00750). Nature of the series: Fluorogenic enzyme assay (Example 5). The format is biochemical. The following applies: enzyme 100 nM, substrate 1 μM; for hydrolysis, t-PA (symbol N.D.): after 24 hrs. As to the method:
as §1, §2

Another series has as its target urokinase (u-PA) (Homo sapiens, UniProt P00749). Nature of the series: Fluorogenic enzyme assay (Example 5). The settings on record: enzyme 100 nM, substrate 1 μM; for hydrolysis, u-PA (symbol N.D.): after 24 hrs. The format is biochemical. The method, then: as §1, §2
Series [3] is described as follows: Fluorescence of 6-amino-1-naphthalenesulfonamides and substrates. The format is physicochemical. The following applies: for Relative Fluorescence: TBS, pH 7.4, 22°C., 1 μM, relative to ANSNH(i-C4 H9), excitation 352 nm, emission 470 nm; for Emission Maxima: free fluorophore. The source says: Each of the 6-amino-1-naphthalenesulfonamide detecting groups, i.e., the free fluorophores, have excitation maxima near 350 nm with emission maxima ranging from 465 to 476 nm. Fluorescent measurements show a 2.2 fold range in the intensities of the fluorescent signals among the fifteen synthesized compounds. The 6-peptidylamino-1-naphthalenesulfonamide fluorogenic substrates have a relative fluorescent intensity at 470 nm which is less than 0.1% of that of the respective free fluorophore. Detection of the free fluorophore can be reliably achieved (>2× background) at a concentration of about 10^-9 M in the presence of about 10^-6 fluorogenic substrate.
^a Measured in TBS, pH 7.4. 22°C.. Concentration of ANSNR
R2 = 1 μM. Fluorescence is expressed relative of ANSNH(i-C4
H9). Excitation wavelength = 352 nm, Emission wavelength = 470 nm.

As usually defined, the Km is the concentration of substrate that gives half-maximal velocity.

Sequence of tissue plasminogen activator (t-PA) (P00750 36-562, species assumed): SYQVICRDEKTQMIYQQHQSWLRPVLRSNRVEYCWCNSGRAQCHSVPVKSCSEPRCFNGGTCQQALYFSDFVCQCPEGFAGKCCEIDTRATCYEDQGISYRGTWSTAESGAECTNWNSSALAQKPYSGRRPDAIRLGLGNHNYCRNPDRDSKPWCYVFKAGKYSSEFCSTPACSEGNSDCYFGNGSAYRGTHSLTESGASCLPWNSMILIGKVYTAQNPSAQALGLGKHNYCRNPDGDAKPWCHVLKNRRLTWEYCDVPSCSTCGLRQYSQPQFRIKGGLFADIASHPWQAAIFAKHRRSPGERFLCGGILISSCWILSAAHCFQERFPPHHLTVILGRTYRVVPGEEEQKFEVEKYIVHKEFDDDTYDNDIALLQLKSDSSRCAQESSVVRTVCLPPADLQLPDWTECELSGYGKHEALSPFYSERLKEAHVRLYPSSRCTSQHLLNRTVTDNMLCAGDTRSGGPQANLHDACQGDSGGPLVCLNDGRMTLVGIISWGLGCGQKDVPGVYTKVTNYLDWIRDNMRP
Sequence of plasmin (Plm) (P00747 581-810 limits assumed, species assumed): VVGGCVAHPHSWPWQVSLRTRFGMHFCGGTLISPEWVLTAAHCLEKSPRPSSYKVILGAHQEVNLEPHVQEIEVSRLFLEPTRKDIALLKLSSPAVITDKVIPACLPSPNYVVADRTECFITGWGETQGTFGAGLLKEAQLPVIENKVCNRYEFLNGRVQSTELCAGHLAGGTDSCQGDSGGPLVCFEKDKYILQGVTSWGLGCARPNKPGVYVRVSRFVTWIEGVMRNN
Sequence of plasmin (Plm) (P00747 97-580 limits assumed, species assumed): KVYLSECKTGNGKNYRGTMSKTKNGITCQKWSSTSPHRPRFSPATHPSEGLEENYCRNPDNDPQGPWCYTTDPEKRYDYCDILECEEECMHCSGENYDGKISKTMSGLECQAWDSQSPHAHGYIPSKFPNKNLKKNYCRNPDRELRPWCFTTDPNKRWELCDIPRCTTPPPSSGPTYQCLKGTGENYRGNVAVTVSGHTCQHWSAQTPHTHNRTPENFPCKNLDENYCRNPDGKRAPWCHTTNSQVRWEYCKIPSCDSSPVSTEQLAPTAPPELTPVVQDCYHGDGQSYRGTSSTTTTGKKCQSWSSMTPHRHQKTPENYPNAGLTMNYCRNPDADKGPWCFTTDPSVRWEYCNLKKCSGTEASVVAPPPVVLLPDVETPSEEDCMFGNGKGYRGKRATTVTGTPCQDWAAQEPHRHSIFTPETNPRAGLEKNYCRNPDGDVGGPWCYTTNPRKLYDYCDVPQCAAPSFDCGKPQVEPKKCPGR

For the compound `Br.N=C(N)NCCC[C@H](NC(=O)OCc1ccccc1)C(=O)Nc1ccc2c(S(=O)(=O)N3CCCCCC3)cccc2c1` [(N^α -Z)ArgANSNR1 R2; (CH2)6], at thrombin (IIa), the “Hydrolysis kinetic constants, IIa (symbol b)” value is reported as “b” and the “Time (min) for 10% hydrolysis, IIa” value is 90 min. Also, at factor Xa, the Km is 427 µM; the “kcat /Km, Xa” value is 293 M⁻¹ s⁻¹; the “kcat, Xa” value is 0.13 s⁻¹; the “Time (min) for 10% hydrolysis, Xa” value is on record as 20 min. Further, in series [1], the “Hydrolysis kinetic constants, APC (symbol b)” value is given as “b” and the “Time (min) for 10% hydrolysis, APC” value was 813 min. The “Time (min) for 5% hydrolysis, Plm” value at plasmin (Plm) worked out at 770 min. For the same compound, in series [2], the “hydrolysis, t-PA (symbol N.D.)” value is reported as “N.D. (Less than 5% hydrolysis after 24 hrs.)”. The “hydrolysis, u-PA (symbol N.D.)” value on urokinase (u-PA) was “N.D. (Less than 5% hydrolysis after 24 hrs.)”.

As to `Br.CCN(CC)S(=O)(=O)c1cccc2cc(NC(=O)[C@H](CCCNC(=N)N)NC(=O)OCc3ccccc3)ccc12` [(N^α -Z)ArgANSNR1 R2; C2 H5; C2 H5, 6-(N^α -benzyloxycarbonyl-L-arginyl)amino-1-(N,N-diethyl)napthalenesulfonamide hydrobromides], at thrombin (IIa), the “Hydrolysis kinetic constants, IIa (symbol b)” value was “b” and the “Time (min) for 10% hydrolysis, IIa” value is recorded as 165 min. For the same compound, at factor Xa, the Km was 200 µM; the “kcat /Km, Xa” value was 1290 M⁻¹ s⁻¹; the “kcat, Xa” value was 0.26 s⁻¹; the “Time (min) for 10% hydrolysis, Xa” value was 14 min. Further, the “Time (min) for 10% hydrolysis, APC” value in series [1] is on record as 1080 min. Also, the “Time (min) for 5% hydrolysis, Plm” value on plasmin (Plm) is given as 1370 min. Also, in series [2], the “hydrolysis, t-PA (symbol N.D.)” value is “N.D. (Less than 5% hydrolysis after 24 hrs.)”. Also, on urokinase (u-PA), the “hydrolysis, u-PA (symbol N.D.)” value is recorded as “N.D. (Less than 5% hydrolysis after 24 hrs.)”.

As to `Br.CN(C)S(=O)(=O)c1cccc2cc(NC(=O)[C@H](CCCNC(=N)N)NC(=O)OCc3ccccc3)ccc12` [(N^α -Z)ArgANSNR1 R2; CH3; CH3], at thrombin (IIa), the Km is 22.6 µM; the “kcat /Km, IIa” value was 630 M⁻¹ s⁻¹; the “kcat, IIa” value is 0.01 s⁻¹; the “Time (min) for 10% hydrolysis, IIa” value was 45 min. Besides, on factor Xa, the Km was 91.4 µM; the “kcat /Km, Xa” value was 1020 M⁻¹ s⁻¹; the “kcat, Xa” value is 0.09 s⁻¹; the “Time (min) for 10% hydrolysis, Xa” value is 15 min. In series [1], the “Hydrolysis kinetic constants, APC (symbol b)” value was “b” and the “Time (min) for 10% hydrolysis, APC” value was 200 min. Moreover, the “Time (min) for 10% hydrolysis, Plm” value at plasmin (Plm) worked out at 1140 min. The “hydrolysis, t-PA (symbol N.D.)” value in series [2] is “N.D. (Less than 5% hydrolysis after 24 hrs.)”. For the same compound, on urokinase (u-PA), the “hydrolysis, u-PA (symbol N.D.)” value is recorded as “N.D. (Less than 5% hydrolysis after 24 hrs.)”.

As for `Br.CCCNS(=O)(=O)c1cccc2cc(NC(=O)[C@H](CCCNC(=N)N)NC(=O)OCc3ccccc3)ccc12` [(N^α -Z)ArgANSNR1 R2; H; C3 H7], at thrombin (IIa), the Km is 22.2 µM; the “kcat /Km, IIa” value was 1580 M⁻¹ s⁻¹; the “kcat, IIa” value is 0.04 s⁻¹; the “Time (min) for 10% hydrolysis, IIa” value is 27 min. Also, on factor Xa, the Km was 125 µM; the “kcat /Km, Xa” value was 593 M⁻¹ s⁻¹; the “kcat, Xa” value is 0.07 s⁻¹; the “Time (min) for 10% hydrolysis, Xa” value is given as 40 min. Besides, in series [1], the Km was 320 µM; the “kcat /Km, APC” value is 1470 M⁻¹ s⁻¹; the “kcat, APC” value is 0.47 s⁻¹; the “Time (min) for 10% hydrolysis, APC” value is given as 15 min. Besides, the “Time (min) for 5% hydrolysis, Plm” value on plasmin (Plm) is on record as 1620 min. Also, the “hydrolysis, t-PA (symbol N.D.)” value in series [2] was “N.D. (Less than 5% hydrolysis after 24 hrs.)”. The “Time (min) for 10% hydrolysis, u-PA” value on urokinase (u-PA) was 220 min.

With `Br.CCCCCNS(=O)(=O)c1cccc2cc(NC(=O)[C@H](CCCNC(=N)N)NC(=O)OCc3ccccc3)ccc12` [(N^α -Z)ArgANSNR1 R2; H; C5 H11], at thrombin (IIa), the Km was 41.4 µM; the “kcat /Km, IIa” value is 242 M⁻¹ s⁻¹; the “kcat, IIa” value was 0.01 s⁻¹; the “Time (min) for 10% hydrolysis, IIa” value was 30 min. Further, at factor Xa, the Km was 36.8 µM; the “kcat /Km, Xa” value was 979 M⁻¹ s⁻¹; the “kcat, Xa” value is 0.04 s⁻¹; the “Time (min) for 10% hydrolysis, Xa” value is given as 45 min. In series [1], the Km is 436 µM; the “kcat /Km, APC” value was 1830 M⁻¹ s⁻¹; the “kcat, APC” value is 0.8 s⁻¹; the “Time (min) for 10% hydrolysis, APC” value is on record as 12 min. Also, the “Time (min) for 10% hydrolysis, Plm” value at plasmin (Plm) is listed as 510 min. In addition, the “Time (min) for 5% hydrolysis, t-PA” value in series [2] (footnote b) turned out to be 1280 min. The “Time (min) for 10% hydrolysis, u-PA” value on urokinase (u-PA) came out at 43 min.

For the compound `Nc1ccc2c(S(=O)(=O)N3CCCCC3)cccc2c1` [ANSNR1 R2; (CH2)5], in series [3], the “Relative Fluorescence” value turned out to be 68 and the “Emission Maxima” value amounted to 473 nm.

As for `Nc1ccc2c(S(=O)(=O)N3CCCCCC3)cccc2c1` [ANSNR1 R2; (CH2)6], in series [3], the “Relative Fluorescence” value is 96 and the “Emission Maxima” value worked out at 469 nm.

In the case of `CCN(CC)S(=O)(=O)c1cccc2cc(N)ccc12` [ANSNR1 R2; C2 H5; C2 H5, 6-amino-1-(N,N-diethyl)naphthalenesulfonamide], in series [3], the “Relative Fluorescence” value was 89 and the “Emission Maxima” value came out at 470 nm.

Regarding `CN(C)S(=O)(=O)c1cccc2cc(N)ccc12` [ANSNR1 R2; CH3; CH3], in series [3], the “Relative Fluorescence” value is recorded as 65 and the “Emission Maxima” value was determined as 472 nm.

For `CCNS(=O)(=O)c1cccc2cc(N)ccc12` [ANSNR1 R2; H; C2 H5], in series [3], the “Relative Fluorescence” value was 78 and the “Emission Maxima” value came out at 466 nm.

As to `CCCNS(=O)(=O)c1cccc2cc(N)ccc12` [ANSNR1 R2; H; C3 H7], in series [3], the “Relative Fluorescence” value is 93 and the “Emission Maxima” value was 470 nm.

As to `CCCCNS(=O)(=O)c1cccc2cc(N)ccc12` [ANSNR1 R2; H; C4 H9], in series [3], the “Relative Fluorescence” value was determined as 63 and the “Emission Maxima” value was 467 nm.

`CCCCCNS(=O)(=O)c1cccc2cc(N)ccc12` [ANSNR1 R2; H; C5 H11]: in series [3], the “Relative Fluorescence” value worked out at 90 and the “Emission Maxima” value was 469 nm.

For `CNS(=O)(=O)c1cccc2cc(N)ccc12` [ANSNR1 R2; H; CH3], in series [3], the “Relative Fluorescence” value worked out at 92 and the “Emission Maxima” value is 468 nm.

Take `Nc1ccc2c(S(=O)(=O)NCc3ccccc3)cccc2c1` [ANSNR1 R2; H; benzyl]: in series [3], the “Relative Fluorescence” value stood at 75 and the “Emission Maxima” value worked out at 467 nm.

In the case of `Nc1ccc2c(S(=O)(=O)NC3CCCCC3)cccc2c1` [ANSNR1 R2; H; cyclo-C6 H11], in series [3], the “Relative Fluorescence” value is 101 and the “Emission Maxima” value amounted to 466 nm.

For the compound `CC(C)NS(=O)(=O)c1cccc2cc(N)ccc12` [ANSNR1 R2; H; i-C3 H7], in series [3], the “Relative Fluorescence” value amounted to 76 and the “Emission Maxima” value came out at 468 nm.

For `CC(C)CNS(=O)(=O)c1cccc2cc(N)ccc12` [ANSNR1 R2; H; i-C4 H9], in series [3], the “Relative Fluorescence” value worked out at 100 and the “Emission Maxima” value came to 468 nm.

Regarding `CC(C)(C)NS(=O)(=O)c1cccc2cc(N)ccc12` [ANSNR1 R2; H; t-C4 H9], in series [3], the “Relative Fluorescence” value was determined as 112 and the “Emission Maxima” value is listed as 465 nm.

Regarding `Nc1ccc2c(S(=O)(=O)N3CCOCC3)cccc2c1` [ANSNR1 R2; morpholyl], in series [3], the “Relative Fluorescence” value turned out to be 41 and the “Emission Maxima” value is given as 476 nm.

(Values after patent publication US5399487A, “6-peptidylamino-1-naphthalenesulfonamides useful as fluorogenic proteolytic enzyme substrates” (Haematologic Technologies, Inc., priority 1993, dated 1995).)
